Drawing on patent US9708316B2 (BRISTOL-MYERS SQUIBB COMPANY, priority 2014, dated 2017), this text covers IC50 for 28 compounds.

The target in assay [1] is HIS-TGFβR2 WT (Homo sapiens, UniProt P37173). As to the kind of experiment: HTRF probe-displacement assay, HIS-TGFβR2 WT. In kind it is binding.
Assay [2] concerns the target T1, HIS-TGFβR1 T204D (Homo sapiens, UniProt P36897, T204D).
T1 sequence (P36897 34-503 T204D): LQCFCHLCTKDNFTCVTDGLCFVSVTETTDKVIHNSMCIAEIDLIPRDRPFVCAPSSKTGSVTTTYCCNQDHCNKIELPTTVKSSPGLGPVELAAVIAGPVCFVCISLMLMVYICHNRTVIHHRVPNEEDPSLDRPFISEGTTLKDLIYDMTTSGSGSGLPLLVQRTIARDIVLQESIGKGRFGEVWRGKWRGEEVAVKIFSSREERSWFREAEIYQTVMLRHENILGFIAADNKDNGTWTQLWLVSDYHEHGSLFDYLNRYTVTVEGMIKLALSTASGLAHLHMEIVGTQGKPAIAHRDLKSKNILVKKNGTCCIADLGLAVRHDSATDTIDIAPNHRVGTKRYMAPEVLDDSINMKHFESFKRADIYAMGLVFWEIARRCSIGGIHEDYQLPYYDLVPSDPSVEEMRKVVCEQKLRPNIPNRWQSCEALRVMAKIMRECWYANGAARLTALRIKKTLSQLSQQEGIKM
As to the kind of experiment: HTRF probe-displacement assay, HIS-TGFβR1 T204D. The conditions noted are these: read-out: TGFβR1 (μM) IC50. Format: binding.

For orientation: IC50 means the midpoint of a concentration-inhibition curve.

Chain of HIS-TGFβR2 WT (P37173 23-567): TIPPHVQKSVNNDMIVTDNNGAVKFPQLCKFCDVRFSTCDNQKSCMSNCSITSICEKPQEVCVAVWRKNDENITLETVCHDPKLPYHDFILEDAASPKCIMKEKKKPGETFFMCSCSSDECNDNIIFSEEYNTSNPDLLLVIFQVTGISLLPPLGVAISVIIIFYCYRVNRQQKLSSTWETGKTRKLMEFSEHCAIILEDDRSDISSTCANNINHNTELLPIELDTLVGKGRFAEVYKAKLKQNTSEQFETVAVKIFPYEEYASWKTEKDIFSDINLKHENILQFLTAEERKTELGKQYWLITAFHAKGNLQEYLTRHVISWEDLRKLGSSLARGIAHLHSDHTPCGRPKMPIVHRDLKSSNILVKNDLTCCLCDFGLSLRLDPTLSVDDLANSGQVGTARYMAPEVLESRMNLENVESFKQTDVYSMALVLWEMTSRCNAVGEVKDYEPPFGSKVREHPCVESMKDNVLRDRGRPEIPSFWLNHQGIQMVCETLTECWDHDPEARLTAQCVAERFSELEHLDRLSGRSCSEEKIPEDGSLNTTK

Consider `COc1ccc(-c2c(-c3ccnc(NC(=O)C4CC4)c3)[nH]c3cccnc23)cn1` [Example 53, N-{4-[3-(6-Methoxypyridin-3-yl)-1H-pyrrolo[3,2-b]pyridin-2-yl]pyridin-2-yl}cyclopropanecarboxamide], for which the results for the IC50 in assay [1] and in assay [2] were 0.005 µM and 0.002 µM, respectively.
Regarding `COc1ccc(-c2c(-c3ccnc(NC(C)=O)c3)[nH]c3cc(N4CCC(OC)CC4)cnc23)nc1` [Example 158, N-(4-(6-(4-Methoxypiperidin-1-yl)-3-(5-methoxypyridin-2-yl)-1H-pyrrolo[3,2-b]pyridin-2-yl)pyridin-2-yl)acetamide], the concentration for half-maximal inhibition (IC50) in assay [1] is over 15 µM; in assay [2], 0.0163 µM.
For `COC(=O)c1cc(Cl)nc2c(-c3ccc(F)cn3)c(-c3ccnc(NC(C)=O)c3)[nH]c12` [Example 69, Methyl 5-chloro-2-(2-acetamidopyridin-4-yl)-3-(5-fluoropyridin-2-yl)-1H-pyrrolo[3,2-b]pyridine-7-carboxylate], the half-maximal inhibitory concentration (IC50) in assay [1] was over 15 µM; in assay [2], 0.76 µM.
The corresponding values for `CCC(O)c1ccnc2c(-c3ccc(OC)nc3)c(-c3ccnc(NC(C)=O)c3)[nH]c12` (centres unmarked) [Example 301, N-(4-(7-(1-Hydroxypropyl)-3-(6-methoxypyridin-3-yl)-1H-pyrrolo[3,2-b]pyridin-2-yl)pyridin-2-yl)acetamide] are 0.031 µM and 0.001 µM.
Consider `CC(=O)Nc1cc(-c2[nH]c3c(C4CCN(C)CC4)ccnc3c2-c2cccc(C(F)F)n2)ccn1` [Example 137, N-(4-{3-[6-(Difluoromethyl)pyridin-2-yl]-7-(1-methylpiperidin-4-yl)-1H-pyrrolo[3,2-b]pyridin-2-yl}pyridin-2-yl)acetamide], for which the IC50 was over 15 µM in assay [1] and 0.058 µM in assay [2].
On to `COc1ccc(-c2c(-c3ccnc(NC(=O)CN4CCN(C)CC4)c3)[nH]c3cc(Cl)cnc23)nc1` [Example 249, N-(4-(6-Chloro-3-(5-methoxypyridin-2-yl)-1H-pyrrolo[3,2-b]pyridin-2-yl)pyridin-2-yl)-2-(4-methylpiperazin-1-yl)acetamide], for which the IC50 is over 15 µM in assay [1] and 0.007 µM in assay [2].
As to `CC(=O)Nc1cc(-c2[nH]c3cccnc3c2-c2ccc(F)c(C(F)F)n2)ccn1` [Example 193, N-(4-(3-(6-(Difluoromethyl)-5-fluoropyridin-2-yl)-1H-pyrrolo[3,2-b]pyridin-2-yl)pyridin-2-yl)acetamide], the 50% inhibitory concentration (IC50) in assay [1] is over 15 µM; in assay [2], 0.0006 µM.
`COc1cnc(-c2c(-c3ccnc(NC(C)=O)c3)[nH]c3cc(Cl)cnc23)s1` [Example 239, N-(4-(6-Chloro-3-(5-methoxythiazol-2-yl)-1H-pyrrolo[3,2-b]pyridin-2-yl)pyridin-2-yl)acetamide]: the IC50 in assay [1] was determined as 3.28 µM; in assay [2] it was 0.0746 µM.
Consider `COc1ccc(-c2c(-c3ccnc(NC(C)=O)c3)[nH]c3cc(NC(C)=O)cnc23)nc1` [Example 157, N-(4-(6-Acetamido-3-(5-methoxypyridin-2-yl)-1H-pyrrolo[3,2-b]pyridin-2-yl)pyridin-2-yl)acetamide], for which the IC50 is over 15 µM in assay [1] and 0.0013 µM in assay [2].
Turning to `COc1ccc(-c2c(-c3ccnc(NC(=O)CN4CC[C@H](O)C4)c3)[nH]c3cc(OC)cnc23)nc1` [Example 121, 2-[(3S)-3-Hydroxypyrrolidin-1-yl]-N-{4-[6-methoxy-3-(5-methoxypyridin-2-yl)-1H-pyrrolo[3,2-b]pyridin-2-yl]pyridin-2-yl}acetamide], the values for the IC50 in assay [1] and in assay [2] were over 15 µM and 0.001 µM, respectively.
In the case of `COc1ccc(-c2c(-c3ccnc(NC(=O)CN4CCS(=O)(=O)CC4)c3)[nH]c3cc(OC)cnc23)nc1` [Example 118, 2-(1,1-Dioxidothiomorpholino)-N-{4-[6-methoxy-3-(5-methoxypyridin-2-yl)-1H-pyrrolo[3,2-b]pyridin-2-yl]pyridin-2-yl}acetamide], the concentration for half-maximal inhibition (IC50) was over 15 µM in assay [1] and 0.002 µM in assay [2].
As for `CC(=O)Nc1cc(-c2[nH]c3c(C(C)O)ccnc3c2-c2ccc(Cl)nc2)ccn1` (centres unmarked) [Example 264, N-(4-(3-(6-Chloropyridin-3-yl)-7-(1-hydroxyethyl)-1H-pyrrolo[3,2-b]pyridin-2-yl)pyridin-2-yl)acetamide], the half-inhibitory concentration (IC50) came to 0.681 µM in assay [1] and 0.001 µM in assay [2].
In the case of `COc1ccnc2c(-c3nc(C)cs3)c(-c3ccnc(NC(C)=O)c3)[nH]c12` [Example 234, N-(4-(7-Methoxy-3-(4-methylthiazol-2-yl)-1H-pyrrolo[3,2-b]pyridin-2-yl)pyridin-2-yl)acetamide], the IC50 in assay [1] stood at 0.572 µM; in assay [2] it was 0.0016 µM.
As for `COc1ccc(-c2c(-c3ccnc(NC(C)=O)c3)[nH]c3c(C)ccnc23)cn1` [Example 215, N-(4-(3-(6-Methoxypyridin-3-yl)-7-methyl-1H-pyrrolo[3,2-b]pyridin-2-yl)pyridin-2-yl)acetamide], the 50% inhibitory concentration (IC50) in assay [1] was found to be 0.999 µM; in assay [2], 0.0885 µM.
Regarding `CC(=O)Nc1cc(-c2[nH]c3c(C(C)O)ccnc3c2-c2ccc(F)cn2)ccn1` (centres unmarked) [Example 265, N-(4-(3-(5-Fluoropyridin-2-yl)-7-(1-hydroxyethyl)-1H-pyrrolo[3,2-b]pyridin-2-yl)pyridin-2-yl)acetamide], the half-maximal inhibitory concentration (IC50) in assay [1] came to 1.05 µM; in assay [2], 0.004 µM.
As for `COc1ccc(-c2c(-c3ccnc(NC(C)=O)c3)[nH]c3c(C(F)F)ccnc23)cn1` [Example 213, N-(4-(7-(Difluoromethyl)-3-(6-methoxypyridin-3-yl)-1H-pyrrolo[3,2-b]pyridin-2-yl)pyridin-2-yl)acetamide], the 50% inhibitory concentration (IC50) in assay [1] was 0.118 µM; in assay [2], 0.0061 µM.
Regarding `CC(=O)Nc1cc(-c2[nH]c3cc(Br)cnc3c2-c2cccc(C(F)F)n2)ccn1` [Example 272, N-(4-(6-Bromo-3-(6-(difluoromethyl)pyridin-2-yl)-1H-pyrrolo[3,2-b]pyridin-2-yl)pyridin-2-yl)acetamide], the IC50 in assay [1] amounted to 1.85 µM; in assay [2] it was 0.001 µM.
Regarding `CC(=O)Nc1cc(-c2[nH]c3cc(Cl)cnc3c2-c2cccc(C(C)C)n2)ccn1` [Example 260, N-(4-(6-Chloro-3-(6-isopropylpyridin-2-yl)-1H-pyrrolo[3,2-b]pyridin-2-yl)pyridin-2-yl)acetamide], the IC50 is over 15 µM in assay [1] and 0.049 µM in assay [2].
The like results for `COc1cnc2c(-c3cccc(C(F)F)n3)c(-c3ccnc(NC(C)=O)c3)[nH]c2c1` [Example 282, N-(4-(3-(6-(Difluoromethyl)pyridin-2-yl)-6-methoxy-1H-pyrrolo[3,2-b]pyridin-2-yl)pyridin-2-yl)acetamide] were, in that order, 1.85 µM and 0.001 µM.
As for `CC(=O)Nc1cc(-c2[nH]c3cccnc3c2-c2cccc3cccnc23)ccn1` [Example 21, N-{4-[3-(Quinolin-8-yl)-1H-pyrrolo[3,2-b]pyridin-2-yl]pyridin-2-yl}acetamide], the IC50 was over 15 µM in assay [1] and 1.49 µM in assay [2].
Regarding `COc1ccc(-c2c(-c3ccnc(NC(=O)CN(C)C)c3)[nH]c3cc(OC)cnc23)nc1` [Example 115, 2-(Dimethylamino)-N-{4-[6-methoxy-3-(5-methoxypyridin-2-yl)-1H-pyrrolo[3,2-b]pyridin-2-yl]pyridin-2-yl}acetamide], the results for the IC50 in assay [1] and in assay [2] were 8.68 µM and 0.001 µM, respectively.
Regarding `COc1ccc(-c2c(-c3ccnc(NC(C)=O)c3)[nH]c3cc(N4CCOCC4)cnc23)nc1` [Example 164, N-(4-(3-(5-Methoxypyridin-2-yl)-6-morpholino-1H-pyrrolo[3,2-b]pyridin-2-yl)pyridin-2-yl)acetamide], the figures for the 50% inhibitory concentration (IC50) in assay [1] and in assay [2] were over 15 µM and 0.0053 µM, respectively.
In the case of `CC(=O)Nc1cc(-c2[nH]c3cccnc3c2-c2ncccn2)ccn1` [Example 8, N-{4-[3-(Pyrimidin-2-yl)-1H-pyrrolo[3,2-b]pyridin-2-yl]pyridin-2-yl}acetamide], the IC50 in assay [1] was determined as 2.03 µM; in assay [2] it was 0.009 µM.
Consider `CC(=O)Nc1cc(-c2[nH]c3cccnc3c2-c2cccc(C#N)n2)ccn1` [Example 15, N-{4-[3-(6-Cyanopyridin-2-yl)-1H-pyrrolo[3,2-b]pyridin-2-yl]pyridin-2-yl}acetamide], for which the IC50 in assay [1] turned out to be 13.1 µM; in assay [2] it was 0.017 µM.
For the compound `COc1ccc(-c2c(-c3ccnc(NC(=O)CN4CCOCC4)c3)[nH]c3cc(Cl)cnc23)nc1` [Example 250, N-(4-(6-Chloro-3-(5-methoxypyridin-2-yl)-1H-pyrrolo[3,2-b]pyridin-2-yl)pyridin-2-yl)-2-morpholinoacetamide], the half-maximal inhibitory concentration (IC50) in assay [1] was over 15 µM; in assay [2], 0.007 µM.
On to `COc1cnc2c(-c3nc(C)cs3)c(-c3ccnc(NC(C)=O)c3)[nH]c2c1` [Example 208, N-(4-(6-Methoxy-3-(4-methylthiazol-2-yl)-1H-pyrrolo[3,2-b]pyridin-2-yl)pyridin-2-yl)acetamide], for which the values for the concentration for half-maximal inhibition (IC50) in assay [1] and in assay [2] were 0.044 µM and 0.0006 µM, respectively.
For the compound `CC(=O)Nc1cc(-c2[nH]c3cc(Cl)cnc3c2-c2cccc(OC(C)C)n2)ccn1` [Example 255, N-(4-(6-Chloro-3-(6-isopropoxypyridin-2-yl)-1H-pyrrolo[3,2-b]pyridin-2-yl)pyridin-2-yl)acetamide], the concentration for half-maximal inhibition (IC50) in assay [1] was over 15 µM; in assay [2], 0.433 µM.
Take `CC(=O)Nc1cc(-c2[nH]c3cc(Cl)cnc3c2-c2ncccc2C)ccn1` [Example 259, N-(4-(6-Chloro-3-(3-methylpyridin-2-yl)-1H-pyrrolo[3,2-b]pyridin-2-yl)pyridin-2-yl)acetamide]: the IC50 in assay [1] was over 15 µM; in assay [2], 0.535 µM.
